Results from patent publication US6355799B1, “Substituted benzene compounds, process for their preparation, and herbicidal and defoliant compositions containing them” (ISK Americas Incorporated, priority 1997, dated 2002).

Assays:
Assay type in all cases: in vivo
[1] = system: redroot pigweed (Amaranthus retroflexus, AMARE); test: Pre-emerge test, greenhouse herbicide activity screening; details: pre-emerge, rated 14 days after application, 0 = no damage, 100 = complete death
Method in brief: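 Compounds in acetone were track-sprayed at 15-1000 g ai/ha (187 l/ha) on sandy loam pots: pre-emerge one day after seeding, post-emerge at 2-3 leaf stage with 0.25% v/v non-ionic surfactant. Phytotoxicity was rated 14 days later on a 0 (no damage) to 100 (complete death) scale.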

[2] = system: ivyleaf morningglory (Ipomoea hederacea, IPOHE); test: Post-emerge test, greenhouse herbicide activity screening; details: phytotoxicity rating 0-100 (0 no damage, 100 complete death), 14 days after application
Method in brief: (§1)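 Fourteen days after spraying, crop and weed injury was graded visually from 0, no effect, to 100, every plant dead. Test substances were dissolved in acetone and applied at 15–1000 g ai/ha with a flat-fan nozzle. Application was either pre-emergence, one day after sowing, or post-emergence at the 2–3 leaf stage.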

[3] = system: lambsquarters (Chenopodium album, CHEAL); test: as above; details: phytotoxicity rating 0-100 (0 no damage, 100 complete death), 14 days after application
Method in brief: as §1

[4] = system: green foxtail (Setaria viridis, SETVI); test: as above; details: phytotoxicity rating 0-100 (0 no damage, 100 complete death), 14 days after application
Method in brief: as §1

[5] = system: johnsongrass (Sorghum halepense, SORHA); test: as above; details: phytotoxicity rating 0-100 (0 no damage, 100 complete death), 14 days after application
Method in brief: as §1

[6] = system: common ragweed (Ambrosia artemisizfolia L., AMBEL); test: as above; details: phytotoxicity rating 0-100 (0 no damage, 100 complete death), 14 days after application
Method in brief: as §1

[7] = system: velvetleaf (Abutilon theophrasti, ABUTH); test: as above; details: phytotoxicity rating 0-100 (0 no damage, 100 complete death), 14 days after application
Method in brief: as §1

[8] = system: sicklepod (Cassia obtusifolia, CASOB); test: as above; details: phytotoxicity rating 0-100 (0 no damage, 100 complete death), 14 days after application
Method in brief: as §1

[9] = system: large crabgrass (Digitaria sanguinalis, DIGSA); test: as above; details: phytotoxicity rating 0-100 (0 no damage, 100 complete death), 14 days after application
Method in brief: as §1

[10] = system: redroot pigweed (Amaranthus retroflexus, AMARE); test: as above; details: phytotoxicity rating 0-100 (0 no damage, 100 complete death), 14 days after application
Method in brief: as §1

[11] = system: barnyardgrass (Echinochloa crus-galli, ECHCG); test: as above; details: phytotoxicity rating 0-100 (0 no damage, 100 complete death), 14 days after application
Method in brief: as §1

[12] = system: ivyleaf morningglory (Ipomoea hederacea, IPOHE); test: Pre-emerge test, greenhouse herbicide activity screening; details: pre-emerge, rated 14 days after application, 0 = no damage, 100 = complete death
Method in brief: as §1

[13] = system: lambsquarters (Chenopodium album, CHEAL); test: as above; details: pre-emerge, rated 14 days after application, 0 = no damage, 100 = complete death
Method in brief: as §1

[14] = system: green foxtail (Setaria viridis, SETVI); test: as above; details: pre-emerge, rated 14 days after application, 0 = no damage, 100 = complete death
Method in brief: as §1

[15] = system: johnsongrass (Sorghum halepense, SORHA); test: as above; details: pre-emerge, rated 14 days after application, 0 = no damage, 100 = complete death
Method in brief: as §1

[16] = system: common ragweed (Ambrosia artemisizfolia L., AMBEL); test: as above; details: pre-emerge, rated 14 days after application, 0 = no damage, 100 = complete death
Method in brief: as §1

[17] = system: velvetleaf (Abutilon theophrasti, ABUTH); test: as above; details: pre-emerge, rated 14 days after application, 0 = no damage, 100 = complete death
Method in brief: as §1

[18] = system: sicklepod (Cassia obtusifolia, CASOB); test: as above; details: pre-emerge, rated 14 days after application, 0 = no damage, 100 = complete death
Method in brief: as §1

[19] = system: large crabgrass (Digitaria sanguinalis, DIGSA); test: as above; details: pre-emerge, rated 14 days after application, 0 = no damage, 100 = complete death
Method in brief: as §1

[20] = system: barnyardgrass (Echinochloa crus-galli, ECHCG); test: as above; details: pre-emerge, rated 14 days after application, 0 = no damage, 100 = complete death
Method in brief: as §1

[21] = system: upland rice (Oryza sp., var. Tebonnet, RICE); test: Post-emerge test, crop safety; details: phytotoxicity rating 0-100 (0 no damage, 100 complete death), 14 days after application
Method in brief: as §1

[22] = system: field corn (Zea mays L., var. Dekalb 535, CORN); test: Post-emerge test, crop safety; details: phytotoxicity rating 0-100 (0 no damage, 100 complete death), 14 days after application
Method in brief: as §1

[23] = system: upland rice (Oryza sp., var. Tebonnet, RICE); test: Pre-emerge test, crop safety; details: pre-emerge, rated 14 days after application, 0 = no damage, 100 = complete death
Method in brief: (§2)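 Herbicidal damage is scored 0 (none) to 100 (complete plant death) two weeks after a simulated field spray. Rates span 15–1000 g ai/ha, delivered in acetone at 187 l/ha. For post-emergence treatments, plants have 2–3 leaves and the spray carries 0.25% v/v non-ionic surfactant.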

[24] = system: field corn (Zea mays L., var. Dekalb 535, CORN); test: Pre-emerge test, crop safety; details: pre-emerge, rated 14 days after application, 0 = no damage, 100 = complete death
Method in brief: as §2

CCCc1ccc(C(=O)N(C(=O)c2ccc(CCC)cc2)c2c(OC)c(Cl)cc(F)c2-n2c(=O)cc(C(F)(F)F)n(C)c2=O)cc1 [2-29]
60: Post-emerge Herbicidal Activity AMBEL ([6]; 250 g ai/ha) | Pre-emerge Herbicidal Activity AMBEL (phytotoxicity rating, scale 0-100) ([16]; 250 g ai/ha) | Pre-emerge Herbicidal Activity CASOB (phytotoxicity rating, scale 0-100) ([18]; 63 g ai/ha) | Pre-emerge Herbicidal Activity DIGSA (phytotoxicity rating, scale 0-100) ([19]; 63 g ai/ha) | Post-emerge Herbicidal Activity RICE (crop damage) ([21]; 250 g ai/ha)
100: Pre-emerge Herbicidal Activity AMARE (phytotoxicity rating, scale 0-100) ([1]; 63 g ai/ha) | Pre-emerge Herbicidal Activity AMARE (phytotoxicity rating, scale 0-100) ([1]; 250 g ai/ha) | Post-emerge Herbicidal Activity IPOHE ([2]; 250 g ai/ha) | Post-emerge Herbicidal Activity ABUTH ([7]; 63 g ai/ha) | Post-emerge Herbicidal Activity ABUTH ([7]; 250 g ai/ha) | Post-emerge Herbicidal Activity AMARE ([10]; 250 g ai/ha) | Pre-emerge Herbicidal Activity IPOHE (phytotoxicity rating, scale 0-100) ([12]; 250 g ai/ha) | Pre-emerge Herbicidal Activity CHEAL (phytotoxicity rating, scale 0-100) ([13]; 63 g ai/ha) | Pre-emerge Herbicidal Activity CHEAL (phytotoxicity rating, scale 0-100) ([13]; 250 g ai/ha) | Pre-emerge Herbicidal Activity SETVI (phytotoxicity rating, scale 0-100) ([14]; 63 g ai/ha) | Pre-emerge Herbicidal Activity SETVI (phytotoxicity rating, scale 0-100) ([14]; 250 g ai/ha) | Pre-emerge Herbicidal Activity ABUTH (phytotoxicity rating, scale 0-100) ([17]; 63 g ai/ha) | Pre-emerge Herbicidal Activity ABUTH (phytotoxicity rating, scale 0-100) ([17]; 250 g ai/ha) | Pre-emerge Herbicidal Activity CASOB (phytotoxicity rating, scale 0-100) ([18]; 250 g ai/ha)
75: Post-emerge Herbicidal Activity IPOHE ([2]; 63 g ai/ha)
15: Pre-emerge crop damage CORN (phytotoxicity rating, scale 0-100) ([24]; 250 g ai/ha)
80: Post-emerge Herbicidal Activity CHEAL ([3]; 63 g ai/ha) | Pre-emerge Herbicidal Activity SORHA (phytotoxicity rating, scale 0-100) ([15]; 250 g ai/ha)
30: Pre-emerge Herbicidal Activity IPOHE (phytotoxicity rating, scale 0-100) ([12]; 63 g ai/ha)
50: Post-emerge Herbicidal Activity SETVI ([4]; 250 g ai/ha) | Post-emerge Herbicidal Activity AMBEL ([6]; 63 g ai/ha) | Pre-emerge Herbicidal Activity ECHCG (phytotoxicity rating, scale 0-100) ([20]; 250 g ai/ha)
0: Post-emerge Herbicidal Activity SORHA ([5]; 63 g ai/ha) | Post-emerge Herbicidal Activity DIGSA ([9]; 63 g ai/ha) | Post-emerge Herbicidal Activity ECHCG ([11]; 63 g ai/ha) | Pre-emerge Herbicidal Activity SORHA (phytotoxicity rating, scale 0-100) ([15]; 63 g ai/ha) | Pre-emerge Herbicidal Activity AMBEL (phytotoxicity rating, scale 0-100) ([16]; 63 g ai/ha) | Pre-emerge Herbicidal Activity ECHCG (phytotoxicity rating, scale 0-100) ([20]; 63 g ai/ha) | Pre-emerge crop damage CORN (phytotoxicity rating, scale 0-100) ([24]; 63 g ai/ha)
40: Post-emerge Herbicidal Activity CASOB ([8]; 250 g ai/ha) | Post-emerge Herbicidal Activity RICE (crop damage) ([21]; 63 g ai/ha) | Pre-emerge crop damage RICE (phytotoxicity rating, scale 0-100) ([23]; 63 g ai/ha)
65: Pre-emerge crop damage RICE (phytotoxicity rating, scale 0-100) ([23]; 250 g ai/ha)
10: Post-emerge Herbicidal Activity SORHA ([5]; 250 g ai/ha) | Post-emerge Herbicidal Activity CORN (crop damage) ([22]; 63 g ai/ha)
25: Post-emerge Herbicidal Activity CORN (crop damage) ([22]; 250 g ai/ha)
90: Post-emerge Herbicidal Activity CHEAL ([3]; 250 g ai/ha) | Post-emerge Herbicidal Activity AMARE ([10]; 63 g ai/ha) | Pre-emerge Herbicidal Activity DIGSA (phytotoxicity rating, scale 0-100) ([19]; 250 g ai/ha)
20: Post-emerge Herbicidal Activity SETVI ([4]; 63 g ai/ha) | Post-emerge Herbicidal Activity CASOB ([8]; 63 g ai/ha) | Post-emerge Herbicidal Activity DIGSA ([9]; 250 g ai/ha) | Post-emerge Herbicidal Activity ECHCG ([11]; 250 g ai/ha)
